{"source": "patent US20250282799A1", "about": "“SUBSTITUTED PYRIDO[4,3-d]PYRIMIDINES AS KRAS MODULATORS” (Alterome Therapeutics, Inc., priority 2023, published 2025)", "key": {"KRAS (G12D)/CRAF": {"target": "KRAS (G12D)/CRAF (Homo sapiens (Human), UniProt P01116, G12D)", "sequence (P01116-2 other isoform, or with tags, fused parts or gaps G12D)": "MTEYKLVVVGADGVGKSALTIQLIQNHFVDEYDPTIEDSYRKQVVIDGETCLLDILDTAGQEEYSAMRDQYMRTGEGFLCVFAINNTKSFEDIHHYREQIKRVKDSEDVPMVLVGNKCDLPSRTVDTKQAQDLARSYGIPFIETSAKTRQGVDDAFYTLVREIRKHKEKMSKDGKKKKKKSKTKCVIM", "assay": "TR-FRET biochemical KRAS:CRAF protein:protein interaction assay, KRAS (G12D)", "type": "binding", "conditions": "GMPPNP loaded Biotin-KRAS (G12D), FLAG CRAF RBD; read-out: TR-Fret_PPI KRAS (G12D)/CRAF IC50", "method_in_brief": "(§1)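 Compound (10-point 3-fold series, 1% DMSO final) preincubated 30 min at room temperature with 20 nM biotin-KRAS mutant loaded with GMPPNP, in Hepes pH7.3 buffer with 5 mM MgCl2 and 10 uM GMP-PNP. Then 100 nM FLAG-CRAF RBD for 150 min, 1 nM Tb-anti-FLAG/5 nM SA-XL665 for 90 min; IC50 from normalized 665/620 ratio, 4-parameter fit.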"}, "KRAS (G12V)/CRAF": {"target": "KRAS (G12V)/CRAF (Homo sapiens (Human), UniProt P01116, G12V)", "sequence (P01116-2 other isoform, or with tags, fused parts or gaps G12V)": "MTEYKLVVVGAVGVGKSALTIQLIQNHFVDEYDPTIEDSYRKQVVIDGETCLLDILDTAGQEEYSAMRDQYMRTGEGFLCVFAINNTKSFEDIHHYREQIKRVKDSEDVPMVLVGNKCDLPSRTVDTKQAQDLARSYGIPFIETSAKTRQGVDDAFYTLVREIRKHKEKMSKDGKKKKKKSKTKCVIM", "assay": "TR-FRET biochemical KRAS:CRAF protein:protein interaction assay, KRAS (G12V)", "type": "binding", "conditions": "GMPPNP loaded Biotin-KRAS (G12V), FLAG CRAF RBD; read-out: TR-Fret_PPI KRAS (G12V)/CRAF IC50", "method_in_brief": "as §1"}, "[1]": {"assay": "Pharmacokinetic evaluation, single dosing (oral and intravenous) in rats", "type": "in vivo, male Sprague-Dawley rats", "design": "unit not given here", "conditions": "rat, plasma", "description": "Pharmacokinetic profile for test compound was measured by single dosing in male Sprague-Dawley rats. Animal weights were typically over 200 grams, and animals were allowed to acclimate to their new environment for at least 3 days prior to the initiation of any studies. One set of animals was dosed intravenous with test compound, 2 mg/kg in 20% PEG400, 10% HS-15 Solutol, 70% 50 mM citrate buffer (pH 4.0). Intravenous dosing solution concentration was 1.0 mg/mL. Time of blood sampling was 5 minutes, 15 minutes, 30 minutes, 1 hour, 2 hours, 4 hours, 8 hours, and 24 hours following intravenous dosing. Another set of animals was dosed orally with test compound, 30 mg/kg in 20% PEG400, 10% HS-15 Solutol, 70% 50 mM citrate buffer (pH 4.0). Oral dosing solution concentration was 3.0 mg/mL. Time of blood sampling was 15 minutes, 30 minutes, 1 hour, 2 hours, 4 hours, 8 hours, and 24 hours following oral dosing. Blood samples (˜0.2 mL/sample) were collected via jugular vein and placed in tubes containing Heparin-Na. The blood samples in tubes were mixed and then placed on wet ice prior to centrifugation for plasma. The blood samples were centrifuged at 4000 g for 5 minutes at 4° C. to obtain plasma. The obtained plasma was separated and stored frozen at approximately −80° C.\nAll the plasma samples were analyzed using a Shimadzu (DGU-405) HPLC with an API 6500+MS/MS system following the manufacturer's instructions. All the analytes were detected with positive-mode electrospray ionization (ES+). A standard curve for each test compound was generated and used to measure test compound concentrations in the rat plasma samples. Based on the time course sampling, an area under the curve (AUC) was calculated for the oral group and intravenous group. The percentage of rat bioavailability is calculated based on the equation shown below.\nwhere F is bioavailability, AUCPO is area under curve of oral dosing, AUCIV is area under curve of intravenous dosing, DoseIV is the intravenous dose and DosePO is the oral dose. The oral dosing for the experiments presented in Table 5 was performed at 10 mg/kg unless noted otherwise."}}, "note": "pIC50: −log10 of the molar value."}
{"compound": "[2H]C([2H])(Oc1nc(N2CCCC[C@H]3[C@H](F)[C@H]32)c2cnc(-c3cc(N)cc4cc(F)c(F)c(C#C)c34)c(F)c2n1)[C@@]12CCCN1C[C@H](F)C2", "note": "[Example 16, 5-Ethynyl-6,7-difluoro-4-(8-fluoro-4-((1S,7R,8S)-8-fluoro-2-azabicyclo[5.1.0]octan-2-yl)-2-(((2R,7aS)-2-fluorotetrahydro-1H-pyrrolizin-7a(5H)-yl)methoxy-d2)pyrido[4,3-d]pyrimidin-7-yl)naphthalen-2-amine]", "values": [{"measurement": "pIC50", "setting": "KRAS (G12D)/CRAF", "result": 8.00}, {"measurement": "pIC50", "setting": "KRAS (G12V)/CRAF", "result": 7.25}, {"measurement": "IV (dose 2 mg/kg) (AUC/D) (h*mg/mL)", "setting": "[1]", "result": 718}, {"measurement": "PO (dose 10 mg/kg) (AUC/D) (h*mg/mL)", "setting": "[1]; oral", "result": 75}]}
{"compound": "[2H]C([2H])(Oc1nc(N2CCOC[C@H]3[C@H](F)[C@H]32)c2cnc(-c3cc(N)cc4ccc(F)c(C#C)c34)c(F)c2n1)[C@@]12CCCN1C[C@H](F)C2", "note": "[Example 87, 5-Ethynyl-6-fluoro-4-(8-fluoro-4-((1S,7S,8S)-8-fluoro-5-oxa-2-azabicyclo[5.1.0]octan-2-yl)-2-(((2R,7aS)-2-fluorotetrahydro-1H-pyrrolizin-7a(5H)-yl)methoxy-d2)pyrido[4,3-d]pyrimidin-7-yl)naphthalen-2-amine]", "values": [{"measurement": "pIC50", "setting": "KRAS (G12D)/CRAF", "result": 8.00}, {"measurement": "pIC50", "setting": "KRAS (G12V)/CRAF", "result": 7.22}, {"measurement": "IV (dose 2 mg/kg) (AUC/D) (h*mg/mL)", "setting": "[1]", "result": 494}, {"measurement": "PO (AUC/D) (h*mg/mL), dose 30 mg/kg", "setting": "[1]; oral, dose 30 mg/kg", "result": 122}]}
{"compound": "[2H]C([2H])(Oc1nc(N2CCOC[C@H]3[C@H](F)[C@H]32)c2cnc(-c3cc(N)cc4cc(F)c(F)c(C#C)c34)c(F)c2n1)[C@@]12CCCN1C[C@H](F)C2", "note": "[Example 28, 5-Ethynyl-6,7-difluoro-4-(8-fluoro-4-((1S,7S,8S)-8-fluoro-5-oxa-2-azabicyclo[5.1.0]octan-2-yl)-2-(((2R,7aS)-2-fluorotetrahydro-1H-pyrrolizin-7a(5H)-yl)methoxy-d2)pyrido[4,3-d]pyrimidin-7-yl)naphthalen-2-amine]", "values": [{"measurement": "pIC50", "setting": "KRAS (G12D)/CRAF", "result": 7.94}, {"measurement": "pIC50", "setting": "KRAS (G12V)/CRAF", "result": 7.05}, {"measurement": "IV (dose 2 mg/kg) (AUC/D) (h*mg/mL)", "setting": "[1]", "result": 993}, {"measurement": "PO (dose 10 mg/kg) (AUC/D) (h*mg/mL)", "setting": "[1]; oral", "result": 141}]}
{"compound": "[2H]C([2H])(Oc1nc(N2CCCC[C@H]3[C@H](F)[C@H]32)c2cnc(-c3cc(N)cc4ccc(F)c(C#C)c34)c(F)c2n1)[C@@]12CCCN1C[C@H](F)C2", "note": "[Example 82, 5-Ethynyl-6-fluoro-4-(8-fluoro-4-((1S,7R,8S)-8-fluoro-2-azabicyclo[5.1.0]octan-2-yl)-2-(((2R,7aS)-2-fluorotetrahydro-1H-pyrrolizin-7a(5H)-yl)methoxy-d2)pyrido[4,3-d]pyrimidin-7-yl)naphthalen-2-amine]", "values": [{"measurement": "pIC50", "setting": "KRAS (G12D)/CRAF", "result": 8.09}, {"measurement": "pIC50", "setting": "KRAS (G12V)/CRAF", "result": 7.41}, {"measurement": "IV (dose 2 mg/kg) (AUC/D) (h*mg/mL)", "setting": "[1]", "result": 490}, {"measurement": "PO (dose 10 mg/kg) (AUC/D) (h*mg/mL)", "setting": "[1]; oral", "result": 115}]}
